These compounds were tested against T1, glucocorticoid receptor (Homo sapiens, UniProt P04150) (assay: Hep G2 TAT assay: induction of TAT by dexamethasone in HepG2 cells).
T1 construct: host or cells: HepG2
T1 sequence (P04150 1-777): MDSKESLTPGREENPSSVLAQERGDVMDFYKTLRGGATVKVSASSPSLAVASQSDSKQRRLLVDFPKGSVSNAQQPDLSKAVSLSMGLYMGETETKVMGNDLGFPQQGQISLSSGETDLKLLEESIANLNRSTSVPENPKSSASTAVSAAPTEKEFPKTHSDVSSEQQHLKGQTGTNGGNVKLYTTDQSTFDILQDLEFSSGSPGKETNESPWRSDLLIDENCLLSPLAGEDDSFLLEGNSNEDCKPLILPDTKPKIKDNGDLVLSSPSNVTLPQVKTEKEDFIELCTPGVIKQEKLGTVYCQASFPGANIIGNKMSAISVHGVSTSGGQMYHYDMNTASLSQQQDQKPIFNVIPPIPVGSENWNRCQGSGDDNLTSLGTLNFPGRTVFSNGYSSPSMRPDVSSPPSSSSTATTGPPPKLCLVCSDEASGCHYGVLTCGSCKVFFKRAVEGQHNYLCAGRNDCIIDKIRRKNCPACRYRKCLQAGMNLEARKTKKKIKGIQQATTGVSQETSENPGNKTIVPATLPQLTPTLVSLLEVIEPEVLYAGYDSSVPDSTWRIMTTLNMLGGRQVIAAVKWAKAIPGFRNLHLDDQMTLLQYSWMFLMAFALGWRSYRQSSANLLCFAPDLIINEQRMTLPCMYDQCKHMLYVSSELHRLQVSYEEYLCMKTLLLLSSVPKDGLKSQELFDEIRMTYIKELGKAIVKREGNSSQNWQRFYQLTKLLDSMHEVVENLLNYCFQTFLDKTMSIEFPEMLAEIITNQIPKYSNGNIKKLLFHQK
Format: cell-based
Method: Glucocorticoid mediated activation of TAT occurs by transactivation of glucocorticoid response elements in the TAT promoter by glucocorticoid receptor-agonist complex.
TAT activity was measured as outlined in the literature by A. Ali et al., J. Med. Chem., 2004, 47, 2441-2452.
HepG2 cells were cultured using MEME media supplemented with 10% (v/v) foetal bovine serum; 2 mM L-glutamine and 1% (v/v) NEAA at 37° C., 5%/95% (v/v) CO2/air. The HepG2 cells were counted and adjusted to yield a density of 0.125×10^6 cells/ml in RPMI 1640 without phenol red, 10% (v/v) charcoal stripped FBS, 2 mM L-glutamine and seeded at 25,000 cells/well in 200 μl into 96 well, sterile, tissue culture micro titre plates, and incubated at 37° C., 5% CO2 for 24 hours
Growth media was removed and replaced with assay media {RPMI 1640 without phenol red, 2 mM L-glutamine+10 μM forskolin}. […] Compounds were serially half log diluted in 100% (v/v) dimethylsulphoxide from a 10 mM stock.
HepG2 cells were then lysed with 30 μl of cell lysis buffer containing a protease inhibitor cocktail for 15 minutes at 4° C. 155 μl of substrate mixture was then added containing 5.4 mM Tyrosine sodium salt, 10.8 mM alpha ketoglutarate and 0.06 mM pyridoxal 5′ phosphate in 0.1 M potassium phosphate buffer (pH 7.4). After 2 hours incubation at 37° C. the reaction was terminated by the addition of 15 μl of 10 M aqueous potassium hydroxide solution, and the plates incubated for a further 30 minutes at 37° C. The TAT activity product was measured by absorbance at λ 340 nm.
[compound] and fitting the data to a 4 parameter logistic equation.
O=c1[nH]c([C@H]2CC=C(c3ccc(Cl)cc3C(F)(F)F)CC2)c(Cc2ccccc2)c(=O)[nH]1 (single isomer, unassigned) [Example 109] gave a Ki of 30 nM. Work on CS(=O)(=O)c1ccc(C2=CCC(c3[nH]c(=O)[nH]c(=O)c3Cc3ccccc3)CC2)c(C(F)(F)F)c1 (stereo not drawn) [Example 74] yielded a Ki of 264 nM. Work on Cn1ncc2cccc(C3=CCC(c4[nH]c(=O)[nH]c(=O)c4Cc4ccccc4)CC3)c21 (stereo not drawn) [Example 89] yielded a Ki of 433 nM. Work on Cc1ccncc1C1=CCC(c2[nH]c(=O)[nH]c(=O)c2Cc2ccccc2)CC1 (stereo not drawn) [Example 30] yielded a Ki of 50 nM. CC(C)Cn1nccc1C1=CCC(c2[nH]c(=O)[nH]c(=O)c2Cc2ccccc2)CC1 (stereo not drawn) [Example 62] showed a Ki of 884 nM. O=c1[nH]c(C2CC=C(c3ccc(OC4CC4)cc3F)CC2)c(Cc2ccccc2)c(=O)[nH]1 (stereo not drawn) [Example 94] showed a Ki of 200 nM. With O=c1[nH]c(C2CC=C(c3ccc(OCCO)cc3Cl)CC2)c(Cc2ccccc2)c(=O)[nH]1 (stereo not drawn) [Example 86] the Ki was 1160 nM. In the case of Cn1nccc1C1=CCC(c2[nH]c(=O)[nH]c(=O)c2Cc2ccccc2)CC1 (stereo not drawn) [Example 31], the Ki is reported as 120 nM. For CNS(=O)(=O)c1ccc(C2=CCC(c3[nH]c(=O)[nH]c(=O)c3Cc3ccccc3)CC2)c(C(F)(F)F)c1 (stereo not drawn) [Example 84], the Ki was 259 nM. CCOc1ccc(C2=CCC(c3[nH]c(=O)[nH]c(=O)c3Cc3ccccc3)CC2)c(Cl)c1F (stereo not drawn) [Example 90] showed a Ki of 746 nM. Work on O=c1[nH]c(C2CC=C(c3ccc(Cl)cc3Cl)CC2)c(Cc2ccccc2)c(=O)[nH]1 (stereo not drawn) [Example 6] yielded a Ki of 65 nM. C[C@@H]1CCCN(c2ncccc2C2=CCC(c3[nH]c(=O)[nH]c(=O)c3Cc3ccccc3)CC2)C1 (stereo partly drawn) [Example 47] gave a Ki of 400 nM. With CC(C)n1cc(C2=CCC(c3[nH]c(=O)[nH]c(=O)c3Cc3ccccc3)CC2)c(C(F)(F)F)n1 (stereo not drawn) [Example 75] the Ki was 223 nM. For O=c1[nH]c(C2CC=C(c3ccc(F)cc3)CC2)c(Cc2ccccc2)c(=O)[nH]1 (stereo not drawn) [Example 3], the Ki was 460 nM. With CNS(=O)(=O)c1ccc(C2=CCC(c3[nH]c(=O)[nH]c(=O)c3Cc3ccccc3)CC2)c(F)c1 (stereo not drawn) [Example 98] the Ki was 110 nM. O=c1[nH]c(C2CC=C(c3cccc(Cl)c3)CC2)c(Cc2ccccc2)c(=O)[nH]1 (stereo not drawn) [Example 16] was tested, and the Ki was 640 nM. O=c1[nH]c(C2CC=C(c3cccc(Cl)c3Cl)CC2)c(Cc2ccccc2)c(=O)[nH]1 (stereo not drawn) [Example 2] was tested, and the Ki was 99 nM. O=C(c1ccc(C2=CCC(c3[nH]c(=O)[nH]c(=O)c3Cc3ccccc3)CC2)c(Cl)c1)N1CCCC1 (stereo not drawn) [Example 42, 5-Benzyl-6-(2′-chloro-4′-(pyrrolidine-1-carbonyl)-2,3,4,5-tetrahydro-[1,1′-biphenyl]-4-yl)pyrimidine-2,4(1H,3H)-dione] gave a Ki of 33 nM. For O=c1[nH]c(C2CC=C(c3ccccc3C(F)(F)F)CC2)c(Cc2ccccc2)c(=O)[nH]1 (stereo not drawn) [Example 11], the Ki was 14 nM. In the case of N#Cc1ccccc1C1=CCC(c2[nH]c(=O)[nH]c(=O)c2Cc2ccccc2)CC1 (stereo not drawn) [Example 5], the Ki is reported as 120 nM. For N#Cc1ccc(C2=CC[C@H](c3[nH]c(=O)[nH]c(=O)c3Cc3ccccc3)CC2)c(Cl)c1 (single isomer, unassigned) [Example 39], the Ki was 69 nM. O=c1[nH]c(C2CC=C(c3ccc(S(=O)(=O)N4CCCC4)cc3F)CC2)c(Cc2ccccc2)c(=O)[nH]1 (stereo not drawn) [Example 100] gave a Ki of 1600 nM. Compound O=c1[nH]c([C@@H]2CC=C(c3ccc(Cl)cc3C(F)(F)F)CC2)c(Cc2ccccc2)c(=O)[nH]1 (single isomer, unassigned) [Example 110] has a Ki of 38 nM. In the case of COc1ccc(C2=CCC(c3[nH]c(=O)[nH]c(=O)c3Cc3ccccc3)CC2)c(C(F)(F)F)c1 (stereo not drawn) [Example 17], the Ki is reported as 280 nM. O=c1[nH]c(C2CC=C(c3cccnc3C(F)(F)F)CC2)c(Cc2cccc(N3CCCC3)n2)c(=O)[nH]1 (stereo not drawn) [Example 51, 5-((6-(Pyrrolidin-1-yl)pyridin-2-yl)methyl)-6-(4-(2-(trifluoromethyl)pyridin-3-yl)cyclohex-3-en-1-yl)pyrimidine-2,4(1H,3H)-dione, formic acid] was tested, and the Ki was 400 nM. Cn1ncc2c(C3=CCC(c4[nH]c(=O)[nH]c(=O)c4Cc4ccccc4)CC3)cccc21 (stereo not drawn) [Example 61] was tested, and the Ki was 485 nM. Compound CCOc1ccc(C2=CCC(c3[nH]c(=O)[nH]c(=O)c3Cc3ccccc3)CC2)c(F)c1F (stereo not drawn) [Example 91] has a Ki of 247 nM. In the case of CCn1nccc1C1=CCC(c2[nH]c(=O)[nH]c(=O)c2Cc2ccccc2)CC1 (stereo not drawn) [Example 54], the Ki is reported as 1360 nM. Cc1c(F)cccc1C1=CCC(c2[nH]c(=O)[nH]c(=O)c2Cc2ccccc2)CC1 (stereo not drawn) [Example 24] gave a Ki of 33 nM. Compound CCOc1ccc(C2=CCC(c3[nH]c(=O)[nH]c(=O)c3Cc3ccccc3)CC2)c(F)c1 (stereo not drawn) [Example 78] has a Ki of 175 nM. Compound CCOc1ccc(C2=CCC(c3[nH]c(=O)[nH]c(=O)c3Cc3ccccc3)CC2)c(F)c1Cl (stereo not drawn) [Example 79] has a Ki of 530 nM. For O=c1[nH]c(C2CC=C(c3ccc(Cl)cc3C(F)(F)F)CC2)c(Cc2cccc(C(F)(F)F)c2)c(=O)[nH]1 (stereo not drawn) [Example 114, 6-(4′-chloro-2′-(trifluoromethyl)-2,3,4,5-tetrahydro-[1,1′-biphenyl]-4-yl)-5-(3-(trifluoromethyl)benzyl)pyrimidine-2,4(1H,3H)-dione], the Ki was 121 nM. Compound CN(C)S(=O)(=O)c1ccc(C2=CCC(c3[nH]c(=O)[nH]c(=O)c3Cc3ccccc3)CC2)c(F)c1 (stereo not drawn) [Example 99] has a Ki of 730 nM. For O=c1[nH]c(C2CC=C(c3cc(CO)ccc3Cl)CC2)c(Cc2ccccc2)c(=O)[nH]1 (stereo not drawn) [Example 28], the Ki was 150 nM. Work on O=c1[nH]c(C2CC=C(c3cncs3)CC2)c(Cc2ccccc2)c(=O)[nH]1 (stereo not drawn) [Example 4] yielded a Ki of 1300 nM. Work on Cc1ccc(CO)cc1C1=CCC(c2[nH]c(=O)[nH]c(=O)c2Cc2ccccc2)CC1 (stereo not drawn) [Example 22] yielded a Ki of 330 nM. Work on CC(C)Oc1ccc(C2=CCC(c3[nH]c(=O)[nH]c(=O)c3Cc3ccccc3)CC2)c(Cl)c1 (stereo not drawn) [Example 52] yielded a Ki of 568 nM. With O=c1[nH]c(C2CC=C(c3cccnc3N3CCCCC3)CC2)c(Cc2ccccc2)c(=O)[nH]1 (stereo not drawn) [Example 43, 5-Benzyl-6-(4-(2-(piperidin-1-yl)pyridin-3-yl)cyclohex-3-en-1-yl)pyrimidine-2,4(1H,3H)-dione] the Ki was 150 nM. With CN(C)S(=O)(=O)c1ccc(C2=CCC(c3[nH]c(=O)[nH]c(=O)c3Cc3ccccc3)CC2)c(Cl)c1 (stereo not drawn) [Example 103] the Ki was 258 nM. CCn1nc(C(F)(F)F)cc1C1=CCC(c2[nH]c(=O)[nH]c(=O)c2Cc2ccccc2)CC1 (stereo not drawn) [Example 71] gave a Ki of 148 nM. Compound COc1ccccc1C1=CCC(c2[nH]c(=O)[nH]c(=O)c2Cc2ccccc2)CC1 (stereo not drawn) [Example 18] has a Ki of 260 nM. Compound Cc1ncccc1C1=CCC(c2[nH]c(=O)[nH]c(=O)c2Cc2ccccc2)CC1 (stereo not drawn) [Example 25] has a Ki of 100 nM. Compound O=c1[nH]c(C2CC=C(c3cccnc3N3CCCC3)CC2)c(Cc2ccccc2)c(=O)[nH]1 (stereo not drawn) [Example 44] has a Ki of 45 nM. For O=c1[nH]c(C2CC=C(c3c(Cl)cccc3Cl)CC2)c(Cc2ccccc2)c(=O)[nH]1 (stereo not drawn) [Example 19], the Ki was 32 nM. Work on Cc1ccc(C2=CCC(c3[nH]c(=O)[nH]c(=O)c3Cc3ccccc3)CC2)c(N2CCCC2)n1 (stereo not drawn) [Example 50] yielded a Ki of 14 nM. For CN(C)c1ncc(C2=CCC(c3[nH]c(=O)[nH]c(=O)c3Cc3ccccc3)CC2)cn1 (stereo not drawn) [Example 55], the Ki was 1480 nM. For N#Cc1ccc(Cl)c(C2=CCC(c3[nH]c(=O)[nH]c(=O)c3Cc3ccccc3)CC2)c1 (stereo not drawn) [Example 27], the Ki was 210 nM. O=c1[nH]c(C2CC=C(c3ccc(F)cc3C(F)(F)F)CC2)c(Cc2ccccc2)c(=O)[nH]1 (stereo not drawn) [Example 34] gave a Ki of 23 nM.

Reference: US12018001B2, “Pyrimidine cyclohexenyl glucocorticoid receptor modulators” (priority 2018, dated 2024)
